Literature values in patent US5084274A, “Inhibition of arterial thrombotic occlusion or thromboembolism” (Scripps Clinic and Research Foundation, priority 1987, dated 1992).

System: acute arterial thrombosis
Settings: used alone or in combination

heparin
Response of acute complex arterial thrombosis (in words): unresponsive
